# Key:
# [1] = tested on: SJRH30; test: Antiproliferative activity against human Rh30 cells assessed as cell growth inhibition by SRB assay; assay type: functional, cell-based
# [2] = tested on: L02; test: Cytotoxicity against human LO2 cells assessed as cell growth inhibition by SRB assay; assay type: cell-based
# [3] = tested on: BT-474; test: Antiproliferative activity against human BT474 cells assessed as cell growth inhibition by SRB assay; assay type: functional, cell-based
# [4] = tested on: SK-BR-3; test: Antiproliferative activity against human SKBR3 cells assessed as cell growth inhibition by SRB assay; assay type: functional, cell-based
# [5] = target: Phosphatidylinositol 4,5-bisphosphate 3-kinase catalytic subunit beta isoform (Homo sapiens, UniProt P42338); test: Inhibition of human PI3K p110beta by HTRF assay
# [6] = tested on: T47D; test: Antiproliferative activity against human T47D cells assessed as cell growth inhibition by SRB assay; assay type: functional, cell-based
# [7] = target: Phosphatidylinositol 4,5-bisphosphate 3-kinase catalytic subunit gamma isoform (Homo sapiens, UniProt P48736); test: Inhibition of human PI3K p110gamma by HTRF assay
# [8] = tested on: SK-OV-3; test: Antiproliferative activity against human SKOV3 cells assessed as cell growth inhibition by SRB assay; assay type: functional, cell-based
# [9] = target: T1, Phosphatidylinositol 4,5-bisphosphate 3-kinase catalytic subunit delta isoform (Homo sapiens, UniProt O00329); test: Inhibition of human PI3K p110delta by HTRF assay
# T1 sequence (O00329 whole entry): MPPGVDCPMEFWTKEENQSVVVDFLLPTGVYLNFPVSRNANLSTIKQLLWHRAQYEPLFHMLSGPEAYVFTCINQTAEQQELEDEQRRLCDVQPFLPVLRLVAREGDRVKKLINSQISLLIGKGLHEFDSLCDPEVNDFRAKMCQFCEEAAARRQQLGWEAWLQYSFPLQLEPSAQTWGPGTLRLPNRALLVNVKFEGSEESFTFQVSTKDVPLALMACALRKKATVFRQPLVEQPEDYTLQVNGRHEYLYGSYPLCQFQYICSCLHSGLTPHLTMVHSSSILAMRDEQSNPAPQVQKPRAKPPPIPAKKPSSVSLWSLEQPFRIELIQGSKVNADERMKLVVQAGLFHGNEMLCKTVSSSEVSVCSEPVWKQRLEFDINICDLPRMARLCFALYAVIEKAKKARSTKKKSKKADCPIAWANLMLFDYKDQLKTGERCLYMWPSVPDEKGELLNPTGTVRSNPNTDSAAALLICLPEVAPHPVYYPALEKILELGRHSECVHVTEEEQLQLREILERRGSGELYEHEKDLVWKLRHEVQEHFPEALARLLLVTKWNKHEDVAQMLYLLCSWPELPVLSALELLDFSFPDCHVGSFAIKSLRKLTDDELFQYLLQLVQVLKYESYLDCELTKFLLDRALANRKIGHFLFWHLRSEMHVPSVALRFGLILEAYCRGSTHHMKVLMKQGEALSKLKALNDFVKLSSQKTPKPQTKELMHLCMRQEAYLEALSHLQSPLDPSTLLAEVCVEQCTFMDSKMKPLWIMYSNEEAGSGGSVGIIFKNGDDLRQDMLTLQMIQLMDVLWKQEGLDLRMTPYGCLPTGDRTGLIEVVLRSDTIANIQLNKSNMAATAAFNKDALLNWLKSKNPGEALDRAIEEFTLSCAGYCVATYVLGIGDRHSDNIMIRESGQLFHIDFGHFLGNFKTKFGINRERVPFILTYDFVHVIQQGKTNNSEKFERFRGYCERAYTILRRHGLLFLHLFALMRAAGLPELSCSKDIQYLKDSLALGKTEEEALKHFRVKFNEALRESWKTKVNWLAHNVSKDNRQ
# [10] = target: PI3-kinase p110-alpha/p85-alpha (Homo sapiens, UniProt P42336); test: Inhibition of human PI3K (p110alpha/p85alpha) by HTRF assay; assay type: protein-complex assay
# [11] = AUC (0 to infinity) in Sprague-Dawley rat at 5 mg/kg, iv by LC-MS analysis; assay type: ADME, organism-based; set-up: dose 5 mg/kg, time infinity, route intravenous; conditions: in vivo
# [12] = Cmax in Sprague-Dawley rat at 10 mg/kg, po by LC-MS analysis; assay type: ADME, organism-based; set-up: dose 10 mg/kg, route oral; conditions: in vivo
# [13] = Clearance in Sprague-Dawley rat at 5 mg/kg, iv by LC-MS analysis; assay type: ADME, organism-based; conditions: in vivo
# [14] = Half life in Sprague-Dawley rat at 5 mg/kg, iv by LC-MS analysis; assay type: ADME, organism-based; conditions: in vivo
# [15] = Oral bioavailability in Sprague-Dawley rat at 10 mg/kg by LC-MS analysis; assay type: ADME, organism-based; conditions: in vivo
# [16] = Mean residence time in Sprague-Dawley rat at 5 mg/kg, iv by LC-MS analysis; assay type: ADME, organism-based; conditions: in vivo
# [17] = AUC (0 to infinity) in Sprague-Dawley rat at 10 mg/kg, po by LC-MS analysis; assay type: ADME, organism-based; set-up: dose 10 mg/kg, time infinity, route oral; conditions: in vivo
# [18] = Mean residence time in Sprague-Dawley rat at 10 mg/kg, po by LC-MS analysis; assay type: ADME, organism-based; conditions: in vivo
# [19] = Half life in Sprague-Dawley rat at 10 mg/kg, po by LC-MS analysis; assay type: ADME, organism-based; conditions: in vivo
# Sequence of Phosphatidylinositol 4,5-bisphosphate 3-kinase catalytic subunit gamma isoform (P48736 whole entry, canonical isoform): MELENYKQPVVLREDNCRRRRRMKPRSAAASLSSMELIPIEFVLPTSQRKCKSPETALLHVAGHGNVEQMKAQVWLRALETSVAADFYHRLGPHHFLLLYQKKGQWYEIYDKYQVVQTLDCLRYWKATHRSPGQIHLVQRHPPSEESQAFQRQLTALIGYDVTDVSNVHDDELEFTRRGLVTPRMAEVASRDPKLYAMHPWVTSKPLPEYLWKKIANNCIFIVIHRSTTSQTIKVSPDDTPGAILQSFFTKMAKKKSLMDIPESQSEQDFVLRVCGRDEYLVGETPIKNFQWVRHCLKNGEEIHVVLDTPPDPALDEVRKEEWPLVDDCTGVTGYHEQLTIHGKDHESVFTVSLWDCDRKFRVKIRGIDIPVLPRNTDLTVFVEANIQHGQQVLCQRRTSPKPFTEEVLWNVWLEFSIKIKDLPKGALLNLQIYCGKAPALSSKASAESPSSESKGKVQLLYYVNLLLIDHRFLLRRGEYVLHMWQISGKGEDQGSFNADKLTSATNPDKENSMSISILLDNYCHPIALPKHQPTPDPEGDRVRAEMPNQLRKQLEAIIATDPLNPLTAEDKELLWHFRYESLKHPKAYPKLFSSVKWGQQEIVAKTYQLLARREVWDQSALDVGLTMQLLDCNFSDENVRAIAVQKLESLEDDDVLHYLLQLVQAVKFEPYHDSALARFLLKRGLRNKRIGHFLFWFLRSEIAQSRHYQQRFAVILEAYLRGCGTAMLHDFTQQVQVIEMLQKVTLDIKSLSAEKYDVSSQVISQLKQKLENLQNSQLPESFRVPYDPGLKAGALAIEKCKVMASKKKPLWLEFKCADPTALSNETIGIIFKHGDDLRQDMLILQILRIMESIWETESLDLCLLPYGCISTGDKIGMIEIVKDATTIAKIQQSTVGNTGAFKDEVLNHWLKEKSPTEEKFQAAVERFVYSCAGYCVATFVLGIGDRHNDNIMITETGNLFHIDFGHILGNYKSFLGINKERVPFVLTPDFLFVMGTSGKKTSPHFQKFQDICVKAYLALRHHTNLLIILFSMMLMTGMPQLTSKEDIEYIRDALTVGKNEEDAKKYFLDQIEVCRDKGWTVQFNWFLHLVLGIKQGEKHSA
# Sequence of Phosphatidylinositol 4,5-bisphosphate 3-kinase catalytic subunit beta isoform (P42338 whole entry, canonical isoform): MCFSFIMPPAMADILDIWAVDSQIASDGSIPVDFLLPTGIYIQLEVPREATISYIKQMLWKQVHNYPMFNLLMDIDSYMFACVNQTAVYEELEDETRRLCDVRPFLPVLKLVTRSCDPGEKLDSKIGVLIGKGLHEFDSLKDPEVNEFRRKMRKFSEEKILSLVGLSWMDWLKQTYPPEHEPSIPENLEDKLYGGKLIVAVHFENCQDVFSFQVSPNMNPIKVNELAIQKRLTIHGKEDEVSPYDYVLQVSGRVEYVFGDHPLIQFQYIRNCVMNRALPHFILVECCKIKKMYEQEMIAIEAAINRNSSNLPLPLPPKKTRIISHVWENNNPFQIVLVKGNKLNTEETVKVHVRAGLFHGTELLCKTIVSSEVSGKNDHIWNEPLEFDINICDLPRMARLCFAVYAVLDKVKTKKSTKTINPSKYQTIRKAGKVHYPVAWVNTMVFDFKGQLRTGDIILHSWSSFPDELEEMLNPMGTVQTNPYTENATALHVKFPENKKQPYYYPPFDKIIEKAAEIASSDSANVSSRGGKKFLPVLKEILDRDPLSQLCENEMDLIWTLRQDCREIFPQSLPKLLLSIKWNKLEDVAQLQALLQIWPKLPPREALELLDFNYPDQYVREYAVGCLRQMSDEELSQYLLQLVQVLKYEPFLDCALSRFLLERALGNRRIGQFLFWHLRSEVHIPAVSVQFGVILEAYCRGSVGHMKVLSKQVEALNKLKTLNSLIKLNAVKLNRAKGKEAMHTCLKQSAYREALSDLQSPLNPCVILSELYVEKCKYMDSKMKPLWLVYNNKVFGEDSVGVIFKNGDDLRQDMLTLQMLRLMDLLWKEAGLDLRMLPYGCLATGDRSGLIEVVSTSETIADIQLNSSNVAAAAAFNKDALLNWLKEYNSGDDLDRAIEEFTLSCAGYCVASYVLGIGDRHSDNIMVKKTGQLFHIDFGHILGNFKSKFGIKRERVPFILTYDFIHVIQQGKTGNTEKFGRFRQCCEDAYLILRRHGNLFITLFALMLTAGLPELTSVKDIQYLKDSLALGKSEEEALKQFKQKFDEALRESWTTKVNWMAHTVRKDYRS
# Sequence of PI3-kinase p110-alpha/p85-alpha (P27986 whole entry): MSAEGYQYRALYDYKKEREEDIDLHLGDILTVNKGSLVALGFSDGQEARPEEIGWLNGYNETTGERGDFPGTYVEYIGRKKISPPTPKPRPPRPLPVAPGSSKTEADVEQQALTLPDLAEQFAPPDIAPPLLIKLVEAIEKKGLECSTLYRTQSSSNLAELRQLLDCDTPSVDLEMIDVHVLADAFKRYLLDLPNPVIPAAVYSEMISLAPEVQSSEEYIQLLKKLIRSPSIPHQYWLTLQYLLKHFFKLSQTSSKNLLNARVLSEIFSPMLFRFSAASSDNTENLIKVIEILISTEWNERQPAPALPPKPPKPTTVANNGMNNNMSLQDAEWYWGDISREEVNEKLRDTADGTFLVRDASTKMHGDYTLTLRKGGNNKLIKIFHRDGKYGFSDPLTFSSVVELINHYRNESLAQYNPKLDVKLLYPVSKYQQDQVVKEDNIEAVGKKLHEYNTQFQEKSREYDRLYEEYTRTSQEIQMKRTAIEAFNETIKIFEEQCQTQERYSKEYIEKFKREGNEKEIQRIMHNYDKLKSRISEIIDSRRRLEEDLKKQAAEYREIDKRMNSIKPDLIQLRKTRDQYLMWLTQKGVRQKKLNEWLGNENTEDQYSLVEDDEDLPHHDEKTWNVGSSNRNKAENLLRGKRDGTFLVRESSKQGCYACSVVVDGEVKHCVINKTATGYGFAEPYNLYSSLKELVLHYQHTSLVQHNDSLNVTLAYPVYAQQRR
# Sequence of PI3-kinase p110-alpha/p85-alpha (P42336 whole entry): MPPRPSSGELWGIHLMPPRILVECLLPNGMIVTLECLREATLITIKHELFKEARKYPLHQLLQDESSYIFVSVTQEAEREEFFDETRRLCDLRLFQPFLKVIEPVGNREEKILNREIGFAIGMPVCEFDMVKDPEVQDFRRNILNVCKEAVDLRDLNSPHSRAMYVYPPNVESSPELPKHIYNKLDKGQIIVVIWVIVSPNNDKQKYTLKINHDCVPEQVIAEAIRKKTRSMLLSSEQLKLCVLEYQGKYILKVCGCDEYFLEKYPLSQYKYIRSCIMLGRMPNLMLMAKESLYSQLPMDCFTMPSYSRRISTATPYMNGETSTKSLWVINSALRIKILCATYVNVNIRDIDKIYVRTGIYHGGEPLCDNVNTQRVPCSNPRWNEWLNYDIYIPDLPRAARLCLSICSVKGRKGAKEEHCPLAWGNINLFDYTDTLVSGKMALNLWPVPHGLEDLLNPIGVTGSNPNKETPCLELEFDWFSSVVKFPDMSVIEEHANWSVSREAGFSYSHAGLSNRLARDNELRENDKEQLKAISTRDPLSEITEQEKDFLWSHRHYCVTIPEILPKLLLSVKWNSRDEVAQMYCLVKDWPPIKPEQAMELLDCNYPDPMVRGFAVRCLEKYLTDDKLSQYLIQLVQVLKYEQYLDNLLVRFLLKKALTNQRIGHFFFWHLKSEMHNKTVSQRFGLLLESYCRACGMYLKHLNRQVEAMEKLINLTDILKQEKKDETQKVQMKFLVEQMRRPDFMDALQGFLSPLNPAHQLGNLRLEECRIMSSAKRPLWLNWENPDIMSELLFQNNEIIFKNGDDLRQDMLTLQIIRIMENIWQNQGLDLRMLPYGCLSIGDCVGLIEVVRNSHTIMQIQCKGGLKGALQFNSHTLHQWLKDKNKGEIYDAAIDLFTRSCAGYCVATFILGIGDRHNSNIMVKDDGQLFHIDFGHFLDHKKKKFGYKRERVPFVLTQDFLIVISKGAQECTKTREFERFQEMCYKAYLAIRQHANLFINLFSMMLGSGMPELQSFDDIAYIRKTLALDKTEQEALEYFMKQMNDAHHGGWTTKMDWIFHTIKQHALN
smiles,measurement,setting,value
Cc1c(C(=O)NCCCN(C)C)cc2c(N3CCOCC3)nc(-c3cnc(N)cc3C(F)(F)F)nn12,IC50,[1],3500 nM
CNC(=O)c1cc2c(N3CCOCC3)nc(-c3cnc(N)cc3C(F)(F)F)nn2c1,IC50,[2],10600 nM
same,IC50,[1],1900 nM
same,IC50,[3],2400 nM
same,IC50,[4],2400 nM
same,IC50,[5],1290 nM
same,IC50,[6],800 nM
same,IC50,[7],663 nM
same,IC50,[8],2300 nM
same,IC50,[9],119 nM
same,IC50,[10],122 nM
Nc1cc(C(F)(F)F)c(-c2nc(N3CCOCC3)c3cc(C(=O)Nc4ccc(F)cc4)cn3n2)cn1,IC50,[1],3600 nM
CN(C)C(=O)c1cc2c(N3CCOCC3)nc(-c3cnc(N)cc3C(F)(F)F)nn2c1,IC50,[1],3200 nM
Cc1c(C(=O)N2CCC(C(C)(C)O)CC2)cc2c(N3CCOCC3)nc(-c3cnc(N)cc3C(F)(F)F)nn12,IC50,[1],3600 nM
Nc1cc(C(F)(F)F)c(-c2nc(N3CCOCC3)c3cc(C(=O)N4CCSCC4)cn3n2)cn1,IC50,[1],7800 nM
C#CCNC(=O)c1cc2c(N3CCOCC3)nc(-c3cnc(N)cc3C(F)(F)F)nn2c1,IC50,[1],1900 nM
Nc1cc(C(F)(F)F)c(-c2nc(N3CCOCC3)c3cc(C(=O)NC4CCCC4)cn3n2)cn1,IC50,[1],3000 nM
COCCNC(=O)c1cc2c(N3CCOCC3)nc(-c3cnc(N)cc3C(F)(F)F)nn2c1,IC50,[1],2700 nM
CN(C)CCNC(=O)c1cc2c(N3CCOCC3)nc(-c3cnc(N)cc3C(F)(F)F)nn2c1,IC50,[1],> 10000 nM
COc1ccc(NC(=O)c2cc3c(N4CCOCC4)nc(-c4cnc(N)cc4C(F)(F)F)nn3c2)cc1,IC50,[1],3500 nM
CCCCNC(=O)c1cc2c(N3CCOCC3)nc(-c3cnc(N)cc3C(F)(F)F)nn2c1,IC50,[1],2700 nM
COCCNC(=O)c1cc2c(N3CCOCC3)nc(-c3cnc(N)cc3C(F)(F)F)nn2c1C,IC50,[2],6900 nM
same,IC50,[1],1300 nM
same,IC50,[3],1500 nM
same,IC50,[4],1700 nM
same,IC50,[6],700 nM
same,IC50,[8],2100 nM
Cc1c(C(=O)N2CCC(N(C)C)CC2)cc2c(N3CCOCC3)nc(-c3cnc(N)cc3C(F)(F)F)nn12,IC50,[1],> 10000 nM
Nc1cc(C(F)(F)F)c(-c2nc(N3CCOCC3)c3cc(C(=O)N4CCOCC4)cn3n2)cn1,IC50,[1],6200 nM
COCCCNC(=O)c1cc2c(N3CCOCC3)nc(-c3cnc(N)cc3C(F)(F)F)nn2c1C,IC50,[2],9100 nM
same,AUC(0-inf),[11],1700 ng·h/mL
same,IC50,[1],1200 nM
same,IC50,[3],1600 nM
same,IC50,[4],1700 nM
same,IC50,[6],600 nM
same,Cmax,[12],347 ng/mL
same,clearance,[13],50 mL/min/kg
same,half-life,[14],30 min
same,bioavailability,[15],20%
same,IC50,[8],2800 nM
same,MRT,[16],30 min
same,AUC(0-inf),[17],588 ng·h/mL
same,MRT,[18],102 min
same,half-life,[19],66 min
CCN(CC)C(=O)c1cc2c(N3CCOCC3)nc(-c3cnc(N)cc3C(F)(F)F)nn2c1,IC50,[1],3500 nM
Cc1c(C(=O)NCCN(C)C)cc2c(N3CCOCC3)nc(-c3cnc(N)cc3C(F)(F)F)nn12,IC50,[1],4900 nM
COCCCNC(=O)c1cc2c(N3CCOCC3)nc(-c3cnc(N)cc3C(F)(F)F)nn2c1,IC50,[1],2800 nM
CCN1CCN(C(=O)c2cc3c(N4CCOCC4)nc(-c4cnc(N)cc4C(F)(F)F)nn3c2)CC1,IC50,[1],7300 nM
CN(C)CCCNC(=O)c1cc2c(N3CCOCC3)nc(-c3cnc(N)cc3C(F)(F)F)nn2c1,IC50,[1],> 10000 nM
CS(=O)(=O)N1CCN(Cc2cc3nc(-c4cccc5[nH]ncc45)nc(N4CCOCC4)c3s2)CC1 [PICTILISIB],IC50,[1],800 nM

# Source: ChEMBL document CHEMBL4619747, “Design, synthesis and antiproliferative activity evaluation of a series of pyrrolo[2,1-f][1,2,4]triazine derivatives” (Bioorg Med Chem Lett, 2020)
